Assay results reported in PubChem BioAssay (NCI).
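A five-concentration, 48-hour dose response in 96-well plates underlies each endpoint, interpolated linearly between surrounding concentrations. The concentration for full growth arrest is given as TGI.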

Columns and labels:
Assay in all cases: inhibition of tumour cell growth, NCI panel, 48 h
NCI-H23 lung = system: NCI-H23 lung
M19-MEL melanoma = system: M19-MEL melanoma
DLD-1 colon = system: DLD-1 colon
DMS 273 small cell lung = system: DMS 273 small cell lung
XF 498 CNS = system: XF 498 CNS
HOP-18 NSCLC = system: HOP-18 NSCLC
KM20L2 colon = system: KM20L2 colon
HOP-62 NSCLC = system: HOP-62 NSCLC
DMS 114 small cell lung = system: DMS 114 small cell lung
SK-MEL-5 melanoma = system: SK-MEL-5 melanoma
LXFL 529 NSCLC = system: LXFL 529 NSCLC
HCT-116 colon = system: HCT-116 colon
A498 renal = system: A498 renal
SK-OV-3 ovarian = system: SK-OV-3 ovarian
IGROV1 ovarian = system: IGROV1 ovarian
RPMI-8226 leukemia = system: RPMI-8226 leukemia
TK-10 renal = system: TK-10 renal

Row | Compound | TGI (NCI-H23 lung) | TGI (M19-MEL melanoma) | TGI (DLD-1 colon) | TGI (DMS 273 small cell lung) | TGI (XF 498 CNS) | TGI (HOP-18 NSCLC) | TGI (KM20L2 colon) | TGI (HOP-62 NSCLC) | TGI (DMS 114 small cell lung) | TGI (SK-MEL-5 melanoma) | TGI (LXFL 529 NSCLC) | TGI (HCT-116 colon) | TGI (A498 renal) | TGI (SK-OV-3 ovarian) | TGI (IGROV1 ovarian) | TGI (RPMI-8226 leukemia) | TGI (TK-10 renal)
1 | Nc1nc2c3nc(Nc4ccccc4)sc3nc(=S)n2c2sc(Nc3ccccc3)nc12 | > 100 µM | > 100 µM | > 100 µM | > 100 µM | 4.25 µM | > 100 µM | > 100 µM | > 100 µM | > 100 µM | > 100 µM | 29.4 µM | > 100 µM | > 100 µM | > 100 µM | > 100 µM | – | –
2 | CCN(CC)C(=O)Cc1c(C(=O)N(CC)CC)c(=O)nc2sccn12 | > 100 µM | > 100 µM | > 100 µM | > 100 µM | > 100 µM | > 100 µM | > 100 µM | > 100 µM | > 100 µM | – | > 100 µM | > 100 µM | > 100 µM | > 100 µM | > 100 µM | > 100 µM | > 100 µM
